Source: patent publication US11866414B2, “Substituted heterocyclic compounds” (BRISTOL-MYERS SQUIBB COMPANY, priority 2021, dated 2024)
Where two headings read alike, the source gives them in different places. Marks after values point to notes of the source that are not given here. Each block holds one compound with its values, some of them ahead of it.

Columns and labels:
[1] = tested on: Caco-2 cells; details: human, Caco-2, 2 h, 3 μM, pH 7.4
[2] = Brain penetration in vivo assay (brain and plasma exposure)
Procedure: Brain Penetration In Vivo Assay
A pharmacokinetic study was performed using C57BL6 wild-type mice (n=3 per experiment) to determine brain and plasma exposure of compounds of the invention. The compound was administered orally in a solution of 5% ETHANOL: 90% PEG 300; 5% TPGS at 5 mL/kg for a final concentration of 10 mg/kg. Nice were euthanized 1 hour post-dose and plasma and brain were collected and frozen for analysis. Brain tissues were homogenized in a 1:1 volume of blank C57BL6 mouse plasma. Concentrations of the compound in plasma and brain homogenate were determined by LC-MS analysis.

[3] = tested on: Caco-2 cells; assay: Bidirectional permeability assay in Caco-2 cells; details: for Efflux Ratio: Caco-2, 3 μM, pH 7.4, 2 hours; for CACO2 (A-B): permeability coefficient apical-to-basolateral, 3 μM, pH 7.4, 0.5% BSA, 2 hours, 37° C.
[4] = in vitro; details: human, Caco-2, pH 7.4
[5] = tested on: IFNα-induced STAT phosphorylation (pSTAT5); assay: IFNα-induced STAT phosphorylation in human whole blood; type: cell-based; details: 1 h compound, 1000 U/mL IFNα A/D 15 min, CD3 positive population, read-out: Human Whole blood IFNa pSTAT5 IC50
[6] = Brain penetration in vivo assay (brain and plasma exposure); design: species or system mouse
[7] = Bidirectional permeability assay in Caco-2 cells; details: human, Caco-2, pH 7.4

SMILES: [2H]C([2H])([2H])NC(=O)c1nnc(NC(=O)C2CC2)cc1Nc1cccc(-c2cnn(CC(F)F)n2)c1OC [Example 3, 6-cyclopropaneamido-4-({3-[2-(2,2-difluoroethyl)-2H-1,2,3-triazol-4-yl]-2-methoxyphenyl}amino)-N—(^2H3)methylpyridazine-3-carboxamide]
- CACO2 (A-B) [1]: 368 nm/s
- Ratio of exposure in brain to plasma (mouse) (1 h, 10 mpk, po) [2]: 0.3

SMILES: [2H]C([2H])([2H])NC(=O)c1nnc(NC(=O)C2CC2)cc1Nc1cccc(-c2cnn(C3COC3)n2)c1OC [Example 53, 6-cyclopropaneamido-4-({2-methoxy-3-[2-(oxetan-3-yl)-2H-1,2,3-triazol-4-yl]phenyl}amino)-N—(^2H3)methylpyridazine-3-carboxamide]
- Efflux Ratio [3]: 0.7
- CACO2 (A-B) [3]: 425 nm/s

SMILES: [2H]C([2H])([2H])NC(=O)c1nnc(NC(=O)C2CC2)cc1Nc1ccc(F)c(-c2cnn(CC)n2)c1OC [Example 10, 6-cyclopropaneamido-4-{[3-(2-ethyl-2H-1,2,3-triazol-4-yl)-4-fluoro-2-methoxyphenyl]amino}-N—(^2H3)methylpyridazine-3-carboxamide]
- CACO2 (A-B) [1]: 340 nm/s
- Ratio of exposure in brain to plasma (mouse) (1 h, 10 mpk, po) [2]: 0.1

SMILES: [2H]C([2H])([2H])NC(=O)c1nnc(NC(=O)[C@@H]2CC23CC3)cc1Nc1cccc(-c2cnn(C)n2)c1OC [Example 13, 4-{[2-methoxy-3-(2-methyl-2H-1,2,3-triazol-4-yl)phenyl]amino}-N—(^2H3)methyl-6-[(1R)-spiro[2.2]pentane-1-amido]pyridazine-3-carboxamide]
- Efflux Ratio [3]: 0.7
- CACO2 (A-B) [3]: 251 nm/s
- Ratio of exposure in brain to plasma (mouse) (1 h, 10 mpk, po) [2]: 0.4

SMILES: C[C@H]1O[C@@H](O[C@H]2[C@@H](O)C[C@H](O[C@H]3[C@@H](O)C[C@H](O[C@H]4CC[C@@]5(C)[C@H](CC[C@@H]6[C@@H]5C[C@@H](O)[C@]5(C)[C@@H](C7=CC(=O)OC7)CC[C@]65O)C4)O[C@@H]3C)O[C@@H]2C)C[C@H](O)[C@@H]1O [Digoxin, reference compound]
- Papp A→B at 2 h, 3 μM [7]: 1.8 ± 0.7 ×10⁻⁶ cm/s
- Papp B→A at 2 h, 3 μM [7]: 26.5 ± 7.4 ×10⁻⁶ cm/s
- efflux ratio at 2 h, 3 μM [7]: 14.7

SMILES: [2H]C([2H])([2H])NC(=O)c1nnc(NC(=O)N(C)C(C)C)cc1Nc1nccc(-c2cnn(C)n2)c1OC [Example 59, 4-{[3-methoxy-4-(2-methyl-2H-1,2,3-triazol-4-yl)pyridin-2-yl]amino}-N—(^2H3)methyl-6-{[methyl(propan-2-yl)carbamoyl]amino}pyridazine-3-carboxamide]
- Efflux Ratio [3]: 0.8
- CACO2 (A-B) [3]: 351 nm/s

SMILES: [2H]C([2H])([2H])NC(=O)c1nnc(NC(=O)N(C)CC)cc1Nc1nccc(-c2cnn(C)n2)c1OC [Example 58, 6-{[ethyl(methyl)carbamoyl]amino}-4-{[3-methoxy-4-(2-methyl-2H-1,2,3-triazol-4-yl)pyridin-2-yl]amino}-N—(^2H3)methylpyridazine-3-carboxamide]
- Efflux Ratio [3]: 0.6
- CACO2 (A-B) [3]: 314 nm/s

SMILES: [2H]C([2H])([2H])NC(=O)c1nnc(NC(=O)C2CC2)cc1Nc1cccc(-c2cnn(CCF)n2)c1OC [Example 2, 6-cyclopropaneamido-4-({3-[2-(2-fluoroethyl)-2H-1,2,3-triazol-4-yl]-2-methoxyphenyl}amino)-N—(^2H3)methylpyridazine-3-carboxamide]
- Ratio of exposure in brain to plasma (mouse) ([6]; footnote *: 2 mpk iv solution dose): 0.1*
- CACO2 (A-B) [1]: 427 nm/s

SMILES: [2H]C([2H])([2H])NC(=O)c1nnc(NC(=O)OC)cc1Nc1cccc(-c2cnn(C)n2)c1OC [Example 7, methyl N-(5-{[2-methoxy-3-(2-methyl-2H-1,2,3-triazol-4-yl)phenyl]amino}-6-[(^2H3)methylcarbamoyl]pyridazin-3-yl)carbamate]
- Papp A→B at 2 h, 3 μM [4]: 41.6 ×10⁻⁶ cm/s
- efflux ratio at 2 h, 3 μM [4]: 0.4
- IC50 [5]: 390 nM
- Kp at 40 min ([6]; C57BL6, mouse, brain / plasma, 2 mg/kg, footnote **: 2 mpk iv solution dose, exposures measured at 40 minutes, read-out: Ratio of exposure in brain to plasma (mouse)): 0.5

SMILES: [2H]C([2H])([2H])NC(=O)c1nnc(NC(=O)N2CCC2)cc1Nc1cccc(-c2cnn(C)n2)c1OC [Example 51, 6-[(azetidine-1-carbonyl)amino]-4-{[2-methoxy-3-(2-methyl-2H-1,2,3-triazol-4-yl)phenyl]amino}-N—(^2H3)methylpyridazine-3-carboxamide]
- Efflux Ratio [3]: 0.9
- CACO2 (A-B) [3]: 429 nm/s

More lines, now with the values ahead:

- CACO2 (A-B) [1]: 446 nm/s
- Ratio of exposure in brain to plasma (mouse) (1 h, 10 mpk, po) [2]: 0.8
SMILES: [2H]C([2H])([2H])NC(=O)c1nnc(NC(=O)C2CC2)cc1Nc1nccc(-c2cnn(C3CC3)n2)c1OC [Example 14, 6-cyclopropaneamido-4-{[4-(2-cyclopropyl-2H-1,2,3-triazol-4-yl)-3-methoxypyridin-2-yl]amino}-N—(^2H3)methylpyridazine-3-carboxamide]

- CACO2 (A-B) [1]: 63 nm/s
SMILES: [2H]C([2H])([2H])NC(=O)c1nnc(NC(=O)C2CC2)cc1Nc1cc(Cl)cc(-c2cnn(CC)n2)c1OC [Example 15, 4-{[5-chloro-3-(2-ethyl-2H-1,2,3-triazol-4-yl)-2-methoxyphenyl]amino}-6-cyclopropaneamido-N—(^2H3)methylpyridazine-3-carboxamide]

- Papp A→B at 2 h, 3 μM [4]: 43.2 ×10⁻⁶ cm/s
- efflux ratio at 2 h, 3 μM [4]: 0.4
- IC50 [5]: 120 nM
- Kp at 1.5 h ([6]; C57BL6, mouse, brain / plasma, 2 mg/kg, footnote *****: 2 mpk iv solution dose, exposures measured at 90 minutes, read-out: Ratio of exposure in brain to plasma (mouse)): 0.6
SMILES: [2H]C([2H])([2H])NC(=O)c1nnc(NC(=O)C2CC2)cc1Nc1nc(F)cc(-c2cnn(C)n2)c1OC [Example 62, 6-(Cyclopropanecarboxamido)-4-((6-fluoro-3-methoxy-4-(2-methyl-2H-1,2,3-triazol-4-yl)pyridin-2-yl)amino)-N-(methyl-d3)pyridazine-3-carboxamide]

- CACO2 (A-B) [1]: 173 nm/s
- Ratio of exposure in brain to plasma (mouse) (1 h, 10 mpk, po) [2]: 0.7
SMILES: [2H]C([2H])([2H])NC(=O)c1nnc(NC(=O)C2CC2)cc1Nc1cc(F)cc(-c2cnn(C3CC3)n2)c1OC [Example 12, 6-cyclopropaneamido-4-{[3-(2-cyclopropyl-2H-1,2,3-triazol-4-yl)-5-fluoro-2-methoxyphenyl]amino}-N—(^2H3)methylpyridazine-3-carboxamide]

- CACO2 (A-B) [1]: 432 nm/s
SMILES: [2H]C([2H])([2H])NC(=O)c1nnc(NC(=O)C2CC2)cc1Nc1cccc(-c2cnn(C)n2)c1OC(F)F [Example 56, 6-cyclopropaneamido-4-{[2-(difluoromethoxy)-3-(2-methyl-2H-1,2,3-triazol-4-yl)phenyl]amino}-N—(^2H3)methylpyridazine-3-carboxamide]

- CACO2 (A-B) [1]: 340 nm/s
SMILES: [2H]C([2H])([2H])NC(=O)c1nnc(NC(=O)C2CC2)cc1Nc1nccc(-c2cnn(C)n2)c1OC(F)F [Example 60, 6-cyclopropaneamido-4-{[3-(difluoromethoxy)-4-(2-methyl-2H-1,2,3-triazol-4-yl)pyridin-2-yl]amino}-N—(^2H3)methylpyridazine-3-carboxamide]

- CACO2 (A-B) [1]: 392 nm/s
SMILES: [2H]C([2H])([2H])NC(=O)c1nnc(NC(=O)C2CC2)cc1Nc1ccc(F)c(-c2cnn(C3CC3)n2)c1OC [Example 16, 6-cyclopropaneamido-4-{[3-(2-cyclopropyl-2H-1,2,3-triazol-4-yl)-4-fluoro-2-methoxyphenyl]amino}-N—(^2H3)methylpyridazine-3-carboxamide]

- CACO2 (A-B) [1]: 654 nm/s
SMILES: [2H]C([2H])([2H])NC(=O)c1nnc(NC(=O)C2CC2)cc1Nc1ccc(F)c(-c2cnn(C)n2)c1OC [Example 18, 6-cyclopropaneamido-4-{[4-fluoro-2-methoxy-3-(2-methyl-2H-1,2,3-triazol-4-yl)phenyl]amino}-N—(^2H3)methylpyridazine-3-carboxamide]

- Ratio of exposure in brain to plasma (mouse) (1 h, 10 mpk, po) ([6]; footnote ***: nanosupension in 0.5% methocel A4M, 0.1% tween 80, 99.4% water): 0.2***
- CACO2 (A-B) [1]: 282 nm/s
SMILES: [2H]C([2H])([2H])NC(=O)c1nnc(NC(=O)C2CC2)cc1Nc1cc(C)cc(-c2cnn(C)n2)c1OC [Example 17, 6-cyclopropaneamido-4-{[2-methoxy-5-methyl-3-(2-methyl-2H-1,2,3-triazol-4-yl)phenyl]amino}-N—(^2H3)methylpyridazine-3-carboxamide]

- CACO2 (A-B) [1]: 180 nm/s
SMILES: [2H]C([2H])([2H])NC(=O)c1nnc(NC(=O)C2CC2)cc1Nc1cccc(-c2cnn(C3CCC3)n2)c1OC [Example 54, 4-{[3-(2-cyclobutyl-2H-1,2,3-triazol-4-yl)-2-methoxyphenyl]amino}-6-cyclopropaneamido-N—(^2H3)methylpyridazine-3-carboxamide]
